Reference: patent US7217555B1, “Cloning and characterisation of novel mammalian peptidase” (Janssen Pharmaceutica N.V., priority 1998, dated 2007)

Tests used:
Assay type in all cases: biochemical
NAALAD-ase L = molecular target: T1, NAALAD-ase L (Homo sapiens, UniProt Q9UQQ1); experiment: [3H]-NAAG hydrolysis assay, COS cells transfected with NAALAD-ase L; conditions: recombinant preparation from COS cells
T1 construct: To construct a full length NAALAD-ase L clone, two new primer sets were designed; expressed in transfected cells; host or cells: COS cells, transient, pcDNA-3
T1 sequence (Q9UQQ1 1-740 S100X/R686S/T687H/S689L/V690R/V691S/T692H/F693I): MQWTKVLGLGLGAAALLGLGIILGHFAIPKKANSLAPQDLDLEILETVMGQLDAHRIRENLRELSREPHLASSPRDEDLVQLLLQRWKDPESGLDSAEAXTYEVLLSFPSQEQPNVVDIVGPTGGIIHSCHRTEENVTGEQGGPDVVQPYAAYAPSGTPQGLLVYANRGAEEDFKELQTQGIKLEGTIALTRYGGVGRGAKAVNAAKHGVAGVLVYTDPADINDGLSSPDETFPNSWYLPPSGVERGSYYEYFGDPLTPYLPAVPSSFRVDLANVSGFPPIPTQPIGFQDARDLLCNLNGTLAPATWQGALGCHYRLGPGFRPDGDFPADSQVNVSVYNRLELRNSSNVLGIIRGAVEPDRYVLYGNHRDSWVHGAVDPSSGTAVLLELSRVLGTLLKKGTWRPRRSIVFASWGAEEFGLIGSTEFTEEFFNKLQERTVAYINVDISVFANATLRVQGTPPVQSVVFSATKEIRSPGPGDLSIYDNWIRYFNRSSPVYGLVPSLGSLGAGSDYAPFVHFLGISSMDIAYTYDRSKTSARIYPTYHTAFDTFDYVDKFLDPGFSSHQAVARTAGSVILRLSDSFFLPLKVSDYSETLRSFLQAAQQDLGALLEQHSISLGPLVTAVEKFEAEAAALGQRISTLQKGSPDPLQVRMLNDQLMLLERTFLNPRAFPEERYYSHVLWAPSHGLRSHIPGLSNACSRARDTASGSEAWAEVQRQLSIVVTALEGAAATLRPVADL
Description: (§1) FIG. 9: is an illustration of time course of NAALAD-ase activity. Activity of membrane preparations from COS cells transiently transfected with either NAALAD-ase I (A) or […]. Hydrolysis of 500 nM 3[H]-NAAG in 1 mM ZnCl2, 50 mM Tris.HCL (pH 7.4) was assayed for 0, 15, 30 and 60 min at 37° C. in the presence (open circles) or absence (closed circles) of 30 μM quisqualate. Reactions were terminated with 250 mM ice cold sodium phosphate and released 3[H]-glutamate measured. (C) Inhibition of NAALAD-ase I (open circles) and NAALAD-ase II (closed circles) activity by increasing concentrations of quisqualic acid expressed as % of control (activity in the absence of any inhibitor).
COS cells were maintained in complete medium (DMEM supplemented with 10% foetal calf serum, 1× non-essential amino acids and a 1× strptamycin/penicillin/glutamine mix). […] The cell titre was determined in a Coulter counter and cells were seeded in 6 well plates at a density of 15000 cells/cm^2 and allowed to reach approximately 80% confluence (˜2 days growth). […]
(§2) NAALAD-ase activity was quantified by determination of the extent of hydrolysis of N-acetyl-L-aspartyl-L-(3,4-[^3H])-glutamate as previously described (Blakeley et al., 1988). […] Assay eluates were diluated with scintillation cocktail (16 ml Ultima Gold XR) and counted in a scintillation counter (Packard). […]

NAALAD-ase I [1] = molecular target: T2, NAALAD-ase I (Homo sapiens, UniProt Q04609, Y75H); experiment: [3H]-NAAG hydrolysis assay, membranes of COS cells transiently transfected with NAALAD-ase I; parameters: expressed in transfected cells; host or cells: COS cells, transient, pcDNA-3 (CMV promoter)
T2 sequence (Q04609 whole entry Y75H): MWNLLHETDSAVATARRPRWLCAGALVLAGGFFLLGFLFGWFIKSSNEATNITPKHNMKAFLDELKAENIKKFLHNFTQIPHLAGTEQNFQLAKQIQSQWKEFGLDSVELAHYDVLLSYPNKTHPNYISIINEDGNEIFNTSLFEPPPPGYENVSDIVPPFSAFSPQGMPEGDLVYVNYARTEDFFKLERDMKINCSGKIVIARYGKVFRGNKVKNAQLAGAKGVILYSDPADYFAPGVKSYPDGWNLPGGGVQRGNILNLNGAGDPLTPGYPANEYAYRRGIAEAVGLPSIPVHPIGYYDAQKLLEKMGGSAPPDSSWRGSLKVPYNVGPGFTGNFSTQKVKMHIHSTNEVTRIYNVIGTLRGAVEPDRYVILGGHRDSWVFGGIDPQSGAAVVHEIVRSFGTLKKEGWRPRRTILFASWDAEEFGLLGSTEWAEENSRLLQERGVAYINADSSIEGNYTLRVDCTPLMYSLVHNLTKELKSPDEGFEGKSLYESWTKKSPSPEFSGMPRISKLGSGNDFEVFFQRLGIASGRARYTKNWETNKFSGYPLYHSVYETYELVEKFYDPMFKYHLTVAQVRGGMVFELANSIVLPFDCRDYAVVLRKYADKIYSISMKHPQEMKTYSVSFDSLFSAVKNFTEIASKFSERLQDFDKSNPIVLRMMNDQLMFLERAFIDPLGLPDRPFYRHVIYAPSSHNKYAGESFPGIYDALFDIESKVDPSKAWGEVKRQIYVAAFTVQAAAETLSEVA
Description: as §1
(§3) COS cells were maintained in complete medium (DMEM supplemented with 10% foetal calf serum, 1× non-essential amino acids and a 1× strptamycin/penicillin/glutamine mix). Prior to transfection cells were washed twice with PBS, Ca^+2/Mg^2+ free pre-warmed to 37° C. and dissociated from culture plates by addition of a trypsin/EDTA solution for 1–2 minutes. Cells were collected after a 10 min spin at 1600 rpm and re-suspended in 1–2 ml of equilibrated (5% CO2/95% air) pre-warmed medium. The cell titre was determined in a Coulter counter and cells were seeded in 6 well plates at a density of 15000 cells/cm^2 and allowed to reach approximately 80% confluence (˜2 days growth). For each transfection 6 μl FuGENE6 (Boehringer Mannheim, Germany) was added to 96 μl serum free medium and incubated for 5 minutes at 20° C. This preparation was added to a second tube containing 1 μg of NAALAD-ase/pcDNA3 DNA, mixed gently and allowed to stand for 15 minutes at room temperature. The DNA/FuGENE6/serum-free medium mix was pipetted into a well containing 2 ml fresh complete medium. […]
as §2

NAALAD-ase II = molecular target: T3, NAALAD-ase II (Homo sapiens, UniProt Q9Y3Q0); experiment: [3H]-NAAG hydrolysis assay, membranes of COS cells transiently transfected with NAALAD-ase II
T3 construct: expressed in transfected cells; host or cells: COS cells, transient, pcDNA-3
T3 sequence (Q9Y3Q0 whole entry): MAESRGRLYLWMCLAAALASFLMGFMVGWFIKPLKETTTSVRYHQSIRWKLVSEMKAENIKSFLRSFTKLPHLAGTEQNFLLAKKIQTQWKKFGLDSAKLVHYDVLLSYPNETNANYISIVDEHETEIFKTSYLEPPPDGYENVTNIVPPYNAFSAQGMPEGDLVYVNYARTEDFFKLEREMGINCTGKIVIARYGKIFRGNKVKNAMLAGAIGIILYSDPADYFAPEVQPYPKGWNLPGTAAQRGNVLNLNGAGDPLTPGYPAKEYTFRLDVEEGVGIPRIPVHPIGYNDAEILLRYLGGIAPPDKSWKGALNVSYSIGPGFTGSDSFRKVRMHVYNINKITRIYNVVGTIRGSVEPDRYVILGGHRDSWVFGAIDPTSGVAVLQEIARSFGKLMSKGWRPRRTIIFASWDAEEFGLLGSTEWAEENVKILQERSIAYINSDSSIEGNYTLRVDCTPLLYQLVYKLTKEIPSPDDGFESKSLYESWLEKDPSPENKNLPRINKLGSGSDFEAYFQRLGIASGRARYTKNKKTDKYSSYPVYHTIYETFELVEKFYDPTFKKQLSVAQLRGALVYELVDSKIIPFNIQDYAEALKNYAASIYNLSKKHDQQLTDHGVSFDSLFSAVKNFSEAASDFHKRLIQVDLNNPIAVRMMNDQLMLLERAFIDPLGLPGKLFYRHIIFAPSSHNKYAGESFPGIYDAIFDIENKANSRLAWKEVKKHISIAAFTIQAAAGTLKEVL
Description: as §1, §3, §2

[2] = molecular target: T4, LNCaP membrane NAALAD-ase (Homo sapiens, UniProt Q04609); experiment: Scintillation proximity assay (SPA) of [3H]-NAAG hydrolysis, LNCaP cell membrane preparations
T4 construct: 10 μg of protein from LNCaP cell membrane preparations was used per reaction; endogenous in cells; host or cells: LNCaP cell membranes
T4 sequence (Q04609 whole entry): as the sequence (Q04609 whole entry Y75H) above, with H75Y counted along it
Description: (§4) FIG. 10: is an illustration of NAALAD-ase activity determinations using SPA beads. (A) 10 μg of protein from LNCaP cell membrane preparations was used per reaction to develop a high throughput assay NAALAD-ase assay. Hydrolysis of 40 nM 3[H]-NAAG in 1 mM ZnCl2, 50 mM Tris-HCL (pH 7.4) was measured at 25° C. for different incubation times in a 100 μl reaction volume. Reactions were terminated by the addition of 100 μl glycine buffer (pH 3.0) and naked YS-SPA beads. (C) Inhibition of NAALAD-ase I (open circles) or LNCaP membrane NAALAD-ase (closed circles) activity by increasing concentrations of quisqualic acid expressed as a % of control (activity in the absence of any inhibitor).
(§5) NAALAD-ase assays were performed at 37° C. or 25° C. for 10 min in the presence of 50 mM Tris-HCl, pH 7.4, containing 1 mM ZnCl2. Each assay was performed in a 100 μl reaction volume containing 40 nM 3[H]-NAAG, 50 mM Tris-HCl (pH 7.4), 1 mM Zn^2+C2 and either 10 μg of recombinant NAALAD-ase I or LNCaP cell membrane preparations. Reactions were terminated by addition of 100 μl glycine buffer (pH 3.0) and 1 mg naked YS-SPA beads. After allowing the beds to settle for 30 min, the assay mixture was counted in a microtiterplate scintillation counter. […]

NAALAD-ase I [3] = molecular target: T2, NAALAD-ase I; experiment: Scintillation proximity assay (SPA) of [3H]-NAAG hydrolysis, recombinant NAALAD-ase I membrane preparations; parameters: expressed in transfected cells
Description: as §4, §5

## N[C@@H](Cn1oc(=O)[nH]c1=O)C(=O)O [quisqualic acid]
NAALAD-ase L
  inhibition of NAALAD-ase L activity against NAAG: inhibited
NAALAD-ase I [1]; 30 μM, after 60 min (FIG. 9A)
  inhibition at 30 µM: > 50%
NAALAD-ase I [1]; IC50, inhibition of NAALAD-ase I activity, 500 nM [3H]-NAAG, 37° C., 30 min, anion exchange column readout (FIG. 9C)
  IC50: 12 µM
NAALAD-ase I [1]; IC50 for NAALAD-ase I (discussion, rounded), recombinant preparation from COS cells, NAAG hydrolysis
  IC50: ~10 µM
NAALAD-ase II; 30 μM, after 60 min (FIG. 9B)
  inhibition at 30 µM: > 50%
NAALAD-ase II; IC50, inhibition of NAALAD-ase II activity, 500 nM [3H]-NAAG, 37° C., 60 min, anion exchange column readout (FIG. 9C)
  IC50: 17 µM
NAALAD-ase II; IC50 for NAALAD-ase II (discussion, rounded), recombinant preparation from COS cells, NAAG hydrolysis
  IC50: ~10 µM
[2]
  IC50: 0.91 µM
NAALAD-ase I [3]
  IC50: 1 µM
